# Measurements taken from US20240207261A1, “METHODS FOR TREATING SMALL CELL LUNG CANCER AND OTHER NEUR[…]” (BOARD OF REGENTS, THE UNIVERSITY OF TEXAS SYSTEM, priority 2021, published 2024).
# Several values for one entry are separate records, joined by “and”; a condition that tells them apart may be missing. Identical values can stand only once. Like-named read-outs stand apart in the source and are kept apart here.
# How the values were obtained:
# human SCLC cell lines = assay: Cell proliferation assay (Cell Titer Glo), panel of 21 human SCLC cell lines; type: cell-based; settings: for IC50: 21 human SCLC cell lines
# Experimental: Human SCLC cell lines (21 cell lines) were purchased from ATCC. Cell lines were tested and authenticated by short tandem repeat profiling (DNA fingerprinting) and not cultured for greater than 6-months and were routinely tested for Mycoplasma contamination. Cell lines were cultured in either RPMI or HITES medium with 10% fetal bovine serum and 1% pen-strep, at 37° C. in a humidified chamber with 5% C02.
# Cells were seeded in 96-well plates at 2,000 cells per well in triplicate for each cell line. After 24 hours, the cells in each well were treated with a lurbinectedin or with vehicle control. Four days later, proliferation was assayed by Cell Titer Glo (Promega, Fitchburg, WI). For single drug treatments, median inhibitory concentration (IC50) values were estimated by the Drexplorer software using date from duplicate experiments (14). For drug combinations, the area under the curve (AUC) of the observed (or experimental) effect of the combination was compared to the predicted additive effect. Data was subsequently presented as a ratio of the experimental effect relative to the predicted additive effect based on the Bliss Independence model, as previously reported (15). Using 10% above or below the predicted additive effect as a cut-off, the inventors then assigned the following groups: Observed/predicted<−0.1=greater than additive; […]; Observed/predicted <0.1 and >−0.1=additive.
# Differences in IC50 values between subgroups were tested using ANOVA. Differences between SLFN11 high and low groups, defined using the bi-modality index (16), were tested using an un-paired t-test. Spearman rank correlation was used to assess the association between IC50 values and RPPA protein markers, The Benjamini & Hochberg (1995) method (17) was used to control false discovery rate (FDR). RPPA generates a quantitative measurement of expression of over 200 total and phosphorylated proteins, these values can be correlated to other variables such as IC50 values, and be compared between biomarker defined groups using standard statistical techniques. All analyses were performed using the R software.
# [1] = system: pChK1, pRPA32, TH2AX in SCLC cell lines; assay: Western blot of DNA damage markers (Example 1); type: cell-based; settings: 1 nM for 24 or 48 hours, sensitive cell lines
# Experimental: (§1) A 12 SCLC cell line panel representing SCLC-A, N, P and I subtypes, developed at MD Anderson Cancer Center, was screened against lurbinectedin in 96 hr proliferation assays (FIG. 2). Western Blotting: Three SCLC cell lines were treated with 1 nM of lurbinectedin for 24 and 48h and then subjected for protein isolation and Western blotting for pChK1, pRPA32, TH2AX.
# [2] = system: phospho CHK1(S345), phospho RPA32(S4/S8), phospho TH2AX in SCLC cells; assay: Western blot of replication stress and DNA damage markers (Example 2); type: cell-based, human; settings: 0.9 nM, 24 and 48h, versus DMSO, all four subtypes
# Experimental: (§2) Protein lysate were isolated from SCLC cells treated with 0.9 nM lurbinectedin or DMSO for 24 and 48h. Nitrocellulose membranes were incubated with primary antibodies (1:1000) for Human SLFN11 (Santa Cruz Biotechnology), phospho-(S345) CHK1 Cell Signaling Technologies (CST), phospho-(S4/S8) RPA32 (Bethyl laboratories), phospho-(S139) TH2AX (CST), cleaved caspase-3 (CST), phospho-(S366) STING (SAB Biotech), cGAS (CST), PD-L1(CST), GAPDH (Santa Cruz Biotechnology) and Vinculin (Sigma-Aldrich) overnight. Secondary anti-goat, anti-mouse (Santa Cruz Biotechnology) and anti-rabbit HRP linked antibodies (CST) were used and detected using the Chemidoc imaging system, image captured with Image Studio Version 3.1 software (BioRad).
# Based on its mechanism of action, the inventors predicted that lurbinectedin would lead to increased replication stress and DNA damage in SCLC models. To test this, SCLC cells from all four subtypes were treated with lurbinectedin (0.9 nM/L) for 24 and 48h and markers of DNA damage and replication stress were assayed by Western blot.
# DMS79 xenografts = assay: Flank xenograft efficacy study, SLFN11 high; type: in vivo, mouse; settings: 0.1 mg/kg i.v. once per week
# Experimental: (§3) For the […] mouse model, 6-week-old female athymic nude mice (Envigo) were used. Animals were maintained in accordance with the Institutional Animal Care and Use Committee (IACUC) of The University of Texas MD Anderson Cancer Center and the NIH Guidelines for the Care and Use of Laboratory Animals. Experiments were performed under protocol: 00001191-RN03.
# (§4) High SLFN11 protein expressing SCLC cell line DMS79 and low SLFN11 protein expressing cell line H865 were used for generation of xenografts. For subcutaneous injections, 1×10^6 SCLC cells were injected into one flank of each mouse with PBS: Matrigel (1:1, BD Biosciences). At an average tumor volume of 100 mm^3, mice were randomly allocated to three groups (n=5). Mice received either Vehicle (0.9% saline), lurbinectedin (0.1 mg/kg i.v. once per week), or cisplatin (6 mg/kg i.p. once per week). Tumor volumes were measured every other day using digital calipers.
# (§5) Differences in IC50 values between subgroups were tested using ANOVA. Differences between SLFN11 high and low groups, defined using the bi-modality index were tested using an un-paired t-test. Spearman rank correlation was used to assess the association between IC50 values and RPPA protein markers, The Benjamini & Hochberg (1995) method was used to control false discovery rate (FDR). […]
# SCLC cell lines = assay: 96 hr proliferation assay, SCLC cell line panel (Example 1); type: cell-based, human and mouse; settings: for IC50: 12 human-derived and 3 mouse model-derived SCLC cell lines
# Experimental: In this preclinical study, the inventors investigated the therapeutic efficacy of lurbinectedin in large number of profiled SCLC cell lines representing the four SCLC subtypes (A, N, P and I) to identify candidate markers of drug sensitivity and resistance.
# as §1
# [3] = system: cGAS, phospho STING, PD-L1 in SCLC cells; assay: Western blot of cGAS-STING pathway and PD-L1; type: cell-based, human; settings: 24 and 48h
# Experimental: as §2
# metastatic SCLC = settings: 37 of 102 patients; 95% CI 26.2-45.2; cited from earlier work
# H865 xenografts = assay: Flank xenograft efficacy study, SLFN11 low; type: in vivo, mouse; settings: H865, lower SLFN11; 0.1 mg/kg i.v. once per week
# Experimental: as §3, §4, §5
# [4] = clinical testing; cited from earlier work
# DMS79 and H209 cells = assay: Proliferation assay after siRNA knockdown of SLFN11; type: cell-based, human; settings: DMS79 and H209, versus parental and scrambled siRNA controls
# Experimental: For SLFN11 gene silencing, pooled small interfering RNAs (siRNAs) targeting SLFN11 (L-016764-01-0005) or its corresponding scramble control (D-001810-10-05; GE Dharmacon) were transfected into DMS79 and H209 cells for 72 hours using Lipofectamine 2000 (Invitrogen) according to the manufacturer's protocol. The cells were then plated for 96h proliferation assays. Knock down efficiency was validated by Western blotting.
# SLFN11 = assay: Western blot of SLFN11 expression after treatment; type: cell-based, human
# Experimental: as §2
smiles,measurement,setting,value
"COc1ccc2[nH]c3c(c2c1)CCN[C@]31CS[C@@H]2c3c(OC(C)=O)c(C)c4c(c3[C@H](COC1=O)N1[C@@H]2[C@H]2c3c(cc(C)c(OC)c3O)C[C@@H]([C@@H]1O)N2C)OCO4 [lurbinectedin, Lurbinectedin]",IC50,human SCLC cell lines; read-out: IC50 range,0.06 to 1.83 nM
same,IC50,human SCLC cell lines; read-out: median IC50,0.46 nM
same,difference in in vitro activity between subtypes,"human SCLC cell lines; SCLC-A, SCLC-N, SCLC-P, SCLC-I",no significant difference
same,fold change (FC) of IC50 between SLFN11 high and low cell lines,human SCLC cell lines; bimodal separation of SLFN11 by RPPA,3.26 and 3.2
same,"markers of DNA damage (TH2AX, ChK1, RPA32)",[1],increased markers of DNA damage
same,markers of replication stress phospho CHK1(S345) and phospho RPA32(S4/S8),[2],increases in markers of replication stress
same,tumor growth versus vehicle,DMS79 xenografts,significantly reduced tumor growth
same,IC50,SCLC cell lines; read-out: IC50 range,0.08 to 1.84 nM
same,IC50,SCLC cell lines; read-out: median IC50,0.52 nM
same,IC50 of SLFN11-high versus SLFN11-low SCLC cells,SCLC cell lines; p=0.0035 by t-test,lower IC50 than SLFN11-low cells
same,subtype specific difference in sensitivity,"SCLC cell lines; subtypes A, N, P and I",no subtype specific difference
same,phospho STING and PD-L1,[3],only observed in cell lines from the SCLC-P and SCLC-I subtypes
same,protein levels of cGAS,"[3]; versus DMSO, all cell lines tested",induced an increase
same,overall response by investigator assessment,metastatic SCLC,35.2%
same,sensitivity of xenografts,H865 xenografts,significantly less sensitive
same,peak plasma concentration,[4],148.2-153.8 ng/mL and 188.8-196.0 nM
same,sensitivity after SLFN11 knockdown,DMS79 and H209 cells,reduced sensitivity
same,change in SLFN11 levels,SLFN11; DMS-79,minimal decrease
same,change in SLFN11 levels,SLFN11; H1048,undetectable level
